Among the data in patent EP4818176A1, “TETRACYCLIC DERIVATIVE INHIBITOR, AND PREPARATION METHOD AND USE THEREFOR” (Shanghai Hansoh Biomedical Co., Ltd., priority 2023, dated 2025) are Selectivity, IC50 and ΔTm values, retold here.

Read-outs that look alike come from different tables or passages of the source.

Assay [1] has as its system MTAP Knockout HCT116 cells. Kind of assay: Cell proliferation inhibition (CellTiter-Glo), HCT116 MTAP knockout cells. The class given is cell-based. The settings on record: for Selectivity: HCT116 IC50 versus MTAP Knockout HCT116 IC50; for IC50: Homo sapiens. The text has this: (§1) Test Example 2: Determination of the inhibitory effect of the compounds of the present invention on the proliferation activity of HCT116 and MTAP Knockout HCT116 cells.
(§2) 1 Experimental objective: The objective of this test example is to determine the inhibitory effect of the compound on the proliferation activity of HCT116 wild-type and HCT116 MTAP knockout cells. 2 Experimental instruments: Centrifuge (Eppendorf 5810R); microplate reader (BioTek Synergy H1 or PerkinElmer Envision); pipette (Eppendorf or Rainin). 3 Experimental reagents: HCT116 and MTAP Knockout HCT116 cells were purchased from Nanjing Cobioer; Cell Titer-Glo was purchased from Promega (Cat. No. G7573); McCoy'5A was purchased from Gibco (Cat. No. 12330031); FBS was purchased from Gibco (Cat. No. 10091148); PBS was purchased from Gibco (Cat. No. 10010023); trypsin was purchased from Gibco (Cat. No. 25200056); cell culture plates were purchased from Corning (Cat. No. 3610). 4 Experimental method: HCT116 and MTAP Knockout HCT116 cells were cultured in McCoy'5A medium containing 10% FBS until an appropriate cell density was reached. The cells were then collected and adjusted to a suitable concentration using complete medium. The cell suspension was seeded into a 96-well plate at 90 µL per well and allowed to adhere overnight in a 37°C, 5% CO2 incubator. Compound solutions of various concentrations were prepared using DMSO and culture medium, with a vehicle control set. The compound solutions were added to the 96-well plate at 10 µL per well, and the plate was incubated in a 37°C, 5% CO2 incubator for an additional 72-240 hours. After incubation, CellTiter-Glo solution was added, and the mixture was mixed uniformly by shaking, followed by incubation in the dark for 10 to 30 minutes. Luminescence was measured using a Synergy H1 or Envision microplate reader. 5 Experimental data processing method: The inhibition rate was calculated using the luminescence signal values, and the concentrations along with the inhibition rates were subjected to non-linear regression curve fitting using Graphpad Prism software to obtain the IC50 values.

For assay [2], the target named is T1, PRMT5/MEP50-MTA protein complex (Homo sapiens, UniProt O14744).
T1 construct: purchased Viva Biotech
T1 sequence (O14744 whole entry): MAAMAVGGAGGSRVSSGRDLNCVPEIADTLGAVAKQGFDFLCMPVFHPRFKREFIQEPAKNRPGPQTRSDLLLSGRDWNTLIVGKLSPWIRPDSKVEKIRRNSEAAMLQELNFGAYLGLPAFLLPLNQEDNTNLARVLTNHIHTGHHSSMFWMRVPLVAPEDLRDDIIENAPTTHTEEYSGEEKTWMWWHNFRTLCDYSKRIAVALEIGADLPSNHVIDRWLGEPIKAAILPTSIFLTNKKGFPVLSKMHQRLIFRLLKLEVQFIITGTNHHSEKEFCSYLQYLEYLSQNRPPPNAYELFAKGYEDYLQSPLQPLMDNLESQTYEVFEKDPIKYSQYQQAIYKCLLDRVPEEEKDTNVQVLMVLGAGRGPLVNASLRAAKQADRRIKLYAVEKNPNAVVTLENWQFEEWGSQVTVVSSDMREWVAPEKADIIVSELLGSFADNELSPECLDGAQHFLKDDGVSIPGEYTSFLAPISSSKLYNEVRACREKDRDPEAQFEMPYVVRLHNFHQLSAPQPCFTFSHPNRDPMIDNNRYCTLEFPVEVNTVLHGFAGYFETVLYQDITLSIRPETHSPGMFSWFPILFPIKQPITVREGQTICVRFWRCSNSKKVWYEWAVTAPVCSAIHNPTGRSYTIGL
T1 sequence (Q9BQA1 whole entry partner): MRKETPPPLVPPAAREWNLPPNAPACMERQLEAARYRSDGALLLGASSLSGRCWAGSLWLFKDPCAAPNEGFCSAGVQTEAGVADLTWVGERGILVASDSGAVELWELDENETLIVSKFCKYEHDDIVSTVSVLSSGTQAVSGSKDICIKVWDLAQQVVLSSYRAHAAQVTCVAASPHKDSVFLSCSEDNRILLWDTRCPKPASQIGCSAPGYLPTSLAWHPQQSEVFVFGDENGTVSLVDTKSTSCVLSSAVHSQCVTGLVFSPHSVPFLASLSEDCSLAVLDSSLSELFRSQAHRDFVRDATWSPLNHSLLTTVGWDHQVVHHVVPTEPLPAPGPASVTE
Kind of assay: Thermal shift assay: thermal stability (melting temperature) of PRMT5/MEP50-MTA protein complex. The class given is binding. Particulars: final compound concentration 8 µM; 2 µM PRMT5/MEP50, 2 µM MTA; Tm minus Tm of DMSO vehicle control. The text has this: Test Example 1: Determination of the ability of the compounds of the present invention to improve the thermal stability (melting temperature) of the PRMT5/MEP50-MTA protein complex.
1 Experimental objective: The objective of this test example is to determine the ability of the compound to improve the thermal stability of the PRMT5/MEP50-MTA protein complex, resulting in an increase in the protein melting temperature. 2 Experimental instruments: Quantitative PCR instrument (Quantstudio6 Flex) was purchased from Life Technologies; pipettes were purchased from Eppendorf or Rainin. 3 Experimental reagents and consumables: PRMT5/MEP50 protein was prepared by Viva Biotech; HEPES was purchased from Thermo Fisher Scientific (Cat. No. 15630080); DTT was purchased from Sigma (Cat. No. 43816-10ml); sodium chloride was purchased from Invitrogen (Cat. No. AM9760G); Protein Thermal Shift™ Dye Kit was purchased from Thermo Fisher Scientific (Cat. No. 4461146); methylthioadenosine (MTA) was purchased from Sigma (Cat. No. D5011). 4 Experimental method: In this experiment, the thermal shift method was used to measure the change in the melting temperature (Tm) of the PRMT5/MEP50-MTA protein complex before and after compound binding, thereby characterising the ability of the compound to improve the thermal stability of the PRMT5/MEP50-MTA protein complex. A solution containing 50 mM HEPES, 10 mM DTT, 2 µM MTA, SYPRO Orange and 250 mM NaCl was prepared as the experimental buffer. Human PRMT5/MEP50 protein was added to a final concentration of 2 µM, and the mixture was incubated at room temperature for 30 minutes. The above reaction mixture was aliquoted into 8-strip PCR tubes at 19.5 µL per tube. Then 0.5 µL of test compound or DMSO was added to each tube, providing a total reaction volume of 20 µL and a final compound concentration of 8 µM. 2.5% DMSO was set as the vehicle control. After incubation at room temperature for 10 minutes, the PCR tubes were placed in a PCR instrument, and the melt curve function was selected to measure the melting temperature of the PRMT5/MEP50-MTA protein complex in different treatment groups (heated from 25°C to 95°C, 0.03°C/s). 5 Experimental data processing method: The experimental data files from the PCR instrument were imported into the thermal shift software to obtain the melting temperature (Tm) for each treatment group.

In assay [3] the test system is HCT116 wild-type cells. Description: Cell proliferation inhibition (CellTiter-Glo), HCT116 wild-type cells. It counts as cell-based. Particulars: Homo sapiens.
Excerpt: as §1, §2

[4] abbreviates: HCT-116, read-out: MTAP Knockout HCT116 IC50.
The mark [5] stands for this setting: HCT-116, MTAP Knockout HCT116 cells, proliferation inhibition, Cell Titer-Glo, read-out: MTAP Knockout HCT116 IC50.
[6] abbreviates: HCT-116, HCT116 wild-type cells, proliferation inhibition, Cell Titer-Glo, read-out: HCT116 IC50.

With `CC1CCCN(Cc2ccc(C(F)(F)F)cn2)C(=O)c2cc3c(cc2C1)nc(N)c1cncn13` (racemic) [Example 514, 4-Amino-8-methyl-12-((5-(trifluoromethyl)pyridin-2-yl)methyl)-7,8,9,10,11,12-hexahydro-13H-azo[4,3-g]imidazo[1,5-a]quinoxalin-13-one], the Selectivity in assay [1] was found to be 55. Also, the IC50 (as a rule, the concentration that inhibits the measured activity by half) in assay [1] (setting [4]) was 15 nM; in assay [3] (HCT-116, read-out: HCT116 IC50), 807 nM. Further, the ΔTm (usually the change in melting temperature against a reference sample) at 8 µM in assay [2] was 10.9 °C.

For the compound `CC(c1ccc(C(F)(F)F)cn1)N1CC/C=C\c2cc3nc(N)c4cncn4c3cc2C1=O` (single isomer, unassigned) [Example 313-P1], the Selectivity in assay [1] was determined as 59. Further, the IC50 stood at 17 nM in assay [1] (setting [5]) and 1020 nM in assay [3] (setting [6]). In assay [2], the ΔTm at 8 µM was determined as 11.1 °C.

On to `Nc1nc2cc3c(cc2n2cncc12)C(=O)N([C@@H]1COc2cc(C(F)(F)F)ccc21)CCC/C=C\3` (stereo in doubt) [Example 164-P1, rel-(R, Z)-4-amino-12-(6-(trifluoromethyl)-2,3-dihydrobenzofuran-3-yl)-9,10,11,12-tetrahydro-13H-azo[4,3-g]imidazo[1,5-a]quinoxalin-13-one], for which the Selectivity in assay [1] is 40. Also, the IC50 was 14 nM in assay [1] (setting [5]) and 556 nM in assay [3] (setting [6]). In addition, the ΔTm at 8 µM in assay [2] came to 11.2 °C.

On to `NC1=NC2C=C3CCCCCN(Cc4ccc(C(F)(F)F)cn4)C(=O)C3=CC2n2cncc21` (centres unmarked) [Example 77, 4-Amino-12-((5-(trifluoromethyl)pyridin-2-yl)methyl)-5a,7,8,9,10,11,12,14a-octahydro-13H-azonino[4,3-g]imidazo[1,5-a]quinoxalin-13-one], for which the Selectivity in assay [1] is listed as 20. Besides, the figures for the IC50 in assay [1] (setting [5]) and in assay [3] (setting [6]) were 12 nM and 236 nM, respectively. Moreover, the ΔTm at 8 µM in assay [2] was 11 °C.

For `Nc1nc2cc3c(cc2n2cncc12)C(=O)N(C1COCc2nc(C(F)(F)F)ccc21)CC/C=C\3` (centres unmarked) [Example 157, (Z)-4-Amino-11-(2-(trifluoromethyl)-5,8-dihydro-6H-pyrano[3,4-b]pyridin-5-yl)-10,11-dihydroazocino[4,3-g]imidazo[1,5-a]quinoxalin-12(9H)-one], the Selectivity in assay [1] is on record as 77. For the same compound, the IC50 stood at 23 nM in assay [1] (setting [5]) and 1740 nM in assay [3] (setting [6]). In assay [2], the ΔTm at 8 µM was found to be 11.1 °C.

On to `Nc1nc2cc3c(cc2c2c1COC2)C(=O)N(Cc1ccc(C(F)(F)F)cn1)CCC/C=C\3` [Example 173, (Z)-4-Amino-12-((5-(trifluoromethyl)pyridin-2-yl)methyl)-1,3,9,10,11,12-hexahydro-13H-azo[3,4-g]furo[3,4-c]quinolin-13-one], for which the Selectivity in assay [1] is 80. Further, the IC50 was 3.5 nM in assay [1] (setting [5]) and 279 nM in assay [3] (setting [6]). For the same compound, in assay [2], the ΔTm at 8 µM turned out to be 11.6 °C.

Consider `CC1CCN(Cc2ccc(C(F)(F)F)cn2)C(=O)c2cc3c(cc2CO1)nc(N)c1cncn13` (centres unmarked) [Example 177, 4-Amino-9-methyl-12-((5-(trifluoromethyl)pyridin-2-yl)methyl)-9,10,11,12-tetrahydroimidazo[1,5-a][1,5]oxazolo[8,7-g]quinoxalin-13(7H)-one], for which the Selectivity in assay [1] was 84. The IC50 in assay [1] (setting [4]) turned out to be 18 nM; in assay [3] (HCT-116, read-out: HCT116 IC50) it was 1510 nM. In assay [2], the ΔTm at 8 µM turned out to be 11.2 °C.

As to `CC1OCc2c1c(N)nc1cc3c(cc21)C(=O)N(Cc1ccc(C(F)(F)F)cn1)CCCOC3` (centres unmarked) [Example 184, 4-Amino-3-methyl-12-((5-(trifluoromethyl)pyridin-2-yl)methyl)-3,7,9,10,11,12-hexahydrofuro[3,4-c][1,5]oxazolo [7,8-g]quinoxalin-13(1H)-one], in assay [1], the Selectivity is 108. Besides, the IC50 in assay [1] (setting [4]) was 21 nM; in assay [3] (HCT-116, read-out: HCT116 IC50) it was 2290 nM. Besides, in assay [2], the ΔTm at 8 µM was 11.1 °C.

As to `Cn1ncc2c(N)nc3cc4c(cc3c21)C(=O)N(Cc1ccc(C(F)(F)F)cn1)CCCOC4` [Example 190, 4-Amino-1-methyl-12-((5-(trifluoromethyl)pyridin-2-yl)methyl)-1,7,9,10,11,12-hexahydro-13H-[1,5]oxazolo[7,8-g]pyrazolo[4,3-c]quinolin-13-one], the Selectivity in assay [1] is on record as 123. Besides, the IC50 in assay [1] (setting [4]) was determined as 6.2 nM; in assay [3] (HCT-116, read-out: HCT116 IC50), 763 nM. The ΔTm at 8 µM in assay [2] stood at 12.2 °C.

As for `Nc1nc2cc3c(cc2n2cncc12)C(=O)N(Cc1ccc(S(F)(F)(F)(F)F)cc1)CCCOC3` [Example 214, 4-Amino-12-(4-(pentafluoro-λ^6-sulphanyl)benzyl)-9,10,11,12-tetrahydroimidazo[1,5-a][1,5]oxazonino[8,7-g]quinoxalin-13(7H)-one], the Selectivity in assay [1] is 20. The values for the IC50 in assay [1] (setting [5]) and in assay [3] (setting [6]) were 5.3 nM and 106 nM, respectively. Moreover, the ΔTm at 8 µM in assay [2] was 12.3 °C.

As for `Cn1ncc2c(N)nc3cc4c(cc3c21)C(=O)N(C1COc2cc(C(F)(F)F)ccc21)CCCOC4` (centres unmarked) [Example 270, 4-Amino-1-methyl-12-(6-(trifluoromethyl)-2,3-dihydrobenzofuran-3-yl)-1,7,9,10,11,12-hexahydro-13H-[1,5]oxazonino[7,8-g]pyrazolo[4,3-c]quinolin-13-one], the Selectivity in assay [1] stood at 147. The IC50 came to 17 nM in assay [1] (setting [4]) and 2450 nM in assay [3] (HCT-116, read-out: HCT116 IC50). In addition, in assay [2], the ΔTm at 8 µM stood at 10.8 °C.

As to `Nc1nc2cc3c(cc2n2cncc12)C(=O)N(Cc1ccc(C(F)(F)F)nn1)CC/C=C\3` [Example 418, (Z)-4-Amino-12-(6-(trifluoromethyl)pyridazin-3-yl)methyl-9,10,11,12-tetrahydro-13H-azocino[4,3-g]imidazo[1,5-a]quinoxalin-13-one], the Selectivity in assay [1] is listed as 54. In addition, the IC50 was determined as 20 nM in assay [1] (setting [4]) and 1090 nM in assay [3] (HCT-116, read-out: HCT116 IC50). In assay [2], the ΔTm at 8 µM is 11.5 °C.

Take `Nc1nc2cc3c(cc2n2cncc12)C(=O)N(Cc1ccc(-c2c(F)cncc2F)cn1)CCC/C=C\3` [Example 419, (Z)-4-Amino-12-(3',5'-difluoro-[3,4'-bipyridin]-6-yl)methyl-9,10,11,12-tetrahydro-13H-azonino[4,3-g]imidazo[1,5-a]quinoxalin-13-one]: in assay [1], the Selectivity was found to be 14. In addition, the IC50 in assay [1] (setting [5]) was 3.6 nM; in assay [3] (setting [6]), 51 nM. Moreover, the ΔTm at 8 µM in assay [2] stood at 12.7 °C.

`Cn1ncc2c(N)nc3cc4c(cc3c21)C(=O)N(Cc1ccc(-c2c(F)cccc2F)cn1)CCCOC4` [Example 427, 4-Amino-12-((5-(2,6-difluorophenyl)pyridin-2-yl)methyl)-1-methyl-1,7,9,10,11,12-hexahydro-13H-[1,5]oxazolo[7,8-g]pyrazolo[4,3-c]quinolin-13-one]: the Selectivity in assay [1] stood at 30. Moreover, the IC50 in assay [1] (setting [4]) came to 0.9 nM; in assay [3] (HCT-116, read-out: HCT116 IC50), 27 nM. Further, the shift in melting temperature (ΔTm) at 8 µM in assay [2] is 13.7 °C.
